Assay results as given in the NIST ThermoML archive (doi:10.1021/acs.jced.8b00153).

Assay: relative permittivity at various frequencies (dimensionless)
Settings: 100 kPa, Liquid, Frequency=2 MHz, Parallel plate capacitor

CCc1ccco1 [2-ethylfuran]
Settings | relative permittivity
278.15 K | 2.837
280.65 K | 2.823
283.15 K | 2.813
285.65 K | 2.798
288.15 K | 2.784
290.65 K | 2.766
293.15 K | 2.756
295.65 K | 2.739
298.15 K | 2.725
300.65 K | 2.709
303.15 K | 2.699
305.65 K | 2.682
308.15 K | 2.668
310.65 K | 2.657
313.15 K | 2.643
315.65 K | 2.626
318.15 K | 2.611
320.65 K | 2.601
323.15 K | 2.583
325.65 K | 2.573
328.15 K | 2.559
330.65 K | 2.544
333.15 K | 2.527
335.65 K | 2.516
338.15 K | 2.503

CCc1cccs1 [2-ethylthiophene]
Settings | relative permittivity
278.15 K | 2.968
280.65 K | 2.959
283.15 K | 2.946
285.65 K | 2.936
288.15 K | 2.929
290.65 K | 2.916
293.15 K | 2.911
295.65 K | 2.9
298.15 K | 2.887
300.65 K | 2.878
303.15 K | 2.871
305.65 K | 2.858
308.15 K | 2.848
310.65 K | 2.838
313.15 K | 2.833
315.65 K | 2.82
318.15 K | 2.81
320.65 K | 2.799
323.15 K | 2.792
325.65 K | 2.782
328.15 K | 2.775
330.65 K | 2.766
333.15 K | 2.753
335.65 K | 2.745
338.15 K | 2.734
